Key:
[1] = tested on: purified SDH of Ketogulonigenium sp. ADM 291-19; test: Substrate specificity of purified SDH, PMS-DCIP method; format: biochemical; details: 1-Propanol = 100
Method: The dehydrogenase enzyme activity was assayed spectrophotometrically using 2,6-dichlorophenol indophenol (DCIP) as an artificial electron acceptor and phenazine methosulphate (PMS) as an electron mediator. […] The rate of decrease in absorbance at 522 nm was determined. One unit of enzyme activity was defined as the amount of enzyme catalyzing reduction of 1 μmol of DCIP per minute.
(§1) First, the periplasmic proteins from the cells of K. robustum ADM X6L and Ketogulonigenium sp. ADM 291-19 obtained in Step 1 of Example 1 were prepared by osmotic shock fractionation as described in Step 3 of Example 1. About 50 ml of osmotic shock fluid containing periplasmic proteins was loaded onto a DEAE-TSK 650 (S) (Merck) column (2.5×15 cm) previously equilibrated with 10 mM Tris·HCl buffer (pH 8.0). The column was first washed with 80 ml of 10 mM Tris·HCl buffer (pH 8.0) containing 0.1 M NaCl, followed by a gradient elution with 600 ml of the same buffer containing 0.1-0.5 M NaCl. Fractions containing 5 ml of eluant were collected and assayed for the SDH enzyme activities with D-sorbitol, L-sorbose and glyoxal as substrate. […] At about 0.15 M NaCl, eluted red fractions that probably contained cytochrome c.
(§2) Active fractions eluted from DEAE column were pooled and further purified by gel filtration column chromatography. The active fractions were concentrated by about 20 fold with ultrafiltration in Centricon 30 (Amicon). The concentrate was loaded onto Superose 12 (Pharmacia) and eluted isocratically with 50 mM sodium phosphate buffer (pH 7.0) containing 0.15 M NaCl.
(§3) The purified enzymes were active toward D-sorbitol, L-sorbose and glyoxal.

[2] = tested on: purified SDH of K. robustum ADM X6L; test: as above; format: biochemical, Ketogulonigenium robustum ADM X6L; details: 1-Propanol = 100
Method: (§4) The dehydrogenase enzyme activity was assayed spectrophotometrically using 2,6-dichlorophenol indophenol (DCIP) as an artificial electron acceptor and phenazine methosulphate (PMS) as an electron mediator. The reaction mixture contained 50 mM Tris·HCl buffer (pH 8.0), 10 mM MgCl2, 5 mM CaCl2, 5 mM KCN, 0.1 mM PMS, 0.12 mM DCIP, a substrate as D-sorbitol (250 mM), L-sorbose (250 mM) or glyoxal (50 mM) and enzyme solution in a total volumn of 1.0 ml. The rate of decrease in absorbance at 522 nm was determined. One unit of enzyme activity was defined as the amount of enzyme catalyzing reduction of 1 μmol of DCIP per minute.
as §1, §2, §3

[3] = tested on: purified SDH enzymes; test: Activity of the purified SDH enzymes toward substrates; format: biochemical, K. robustum ADM X6L and Ketogulonigenium sp. ADM 291-19; details: purified SDH enzymes of both strains
Method: as §1, §2, §3

[4] = tested on: dehydrogenase enzyme activity (SDH) of Ketogulonigenium sp. ADM 291-19; test: Enzyme activity in cellular fractions, Ferric-Dupanol method (localization); format: biochemical
Method: (§5) Cells were harvested by centrifugation at 12,000 g for 10 min, washed once with 10 mM Tris·HCl buffer (pH 8.0) and disrupted by sonication in a Branson Sonifier 450 for 15 min at 50% duty cycle in ice. The homogenate thus prepared was centrifuged at 12,000 g for 5 min to remove the cell debris. The resulting supernatant was centrifuged at 100,000 g for 90 min to get the supernatant as soluble fraction and the precipitate as crude membrane fraction. The crude membrane fraction was solubilized with 1.5% n-octyl glucoside by stirring for 2 hours at 4° C. The resultant suspension was centrifuged at 12,000 g for 10 min to give a supernatant, designated as solubilized membrane fraction.
(§6) Enzyme activity was determined also by the Ferric-Dupanol method (Wood, W. A. et al., Meth. Enzymol., 5, 287 (1962)). The enzyme was preincubated for 5 min at 25° C. The reaction was started by addition of 10 mM (final conc.) potassium ferricyanide and 250 mM (final conc.) D-sorbitol, L-sorbose, or glyoxal. After an appropriate time, the reaction was stopped by adding the ferric sulfate-Dupanol solution (Fe2(SO4)3.nH2O 5 g/l, Dupanol (sodium lauryl sulfate) 3 g/l and 85% phosphoric acid 95 ml/l) and the absorbance of the Prussian color developed was determined at 660 nm in a spectrophotometer.
(§7) Enzyme activities towards D-sorbitol, L-sorbose and glyoxal in different cellular fractions were determined for enzyme localization in K. robustum ADM X6L and Ketogulonigenium sp. ADM 291-19. In both cases, most of the enzyme activity detected in crude cell extract was found in the soluble fraction and the activity in solubilized membrane fraction was negligible when assayed with Ferric-Dupanol method.

[5] = tested on: dehydrogenase enzyme activity (SDH) of K. robustum ADM X6L; test: as above; format: biochemical, Ketogulonigenium robustum ADM X6L
Method: as §5, §6, §7

[6] = tested on: SDH; test: SDH activities in osmotic shock fractions, PMS-DCIP method; format: biochemical
Method: For more detailed localization study, periplasmic fraction was enriched by the method of osmotic shock (Neu, H. C. and Heppel, L. A., J. Biol. Chem., 240:3685 (1965)). Wet cells were resuspended at about 0.1 g/ml in 20% sucrose-0.03 M Tris·HCl buffer (pH 8.0) at room temperature. Di-sodium EDTA was added to 1 mM and the flask was shaken at 180 rpm at room temperature for 10 min. After centrifugation at 16,000 g for 20 min at 4° C., the supernatant was removed and the pellet was rapidly mixed with cold distilled water of the same volume as the original cell suspension and shaken in ice bucket in a shaker for 10 min. The mixture was centrifuged again to obtain the supernatant called “osmotic shock fluid”. The pellet was sonicated in the same buffer, centrifuged and the supernatant was obtained as “pellet sonicate”.
as §4
For further localization of the enzymes to periplasm or cytoplasm, periplasm was enriched by osmotic shock method as described in Step 3 of Example 1. In this method, the Tris-Sucrose wash and the osmotic shock fluid represent the periplasmic fraction and the pellet sonicate represents the cytoplasm and the cytoplasmic membrane. […] The remaining activity in pellet sonicate could be due to the incomplete release of periplasm by osmotic shock. Typical enzyme activity assay for SDH and β-galactosidase for fractions obtained by osmotic shock fractionation is shown in Table 3.

[7] = tested on: K. robustum ADM X6L transformants; test: Bioconversion of D-sorbitol by transformants, HPLC of culture supernatant; format: cell-based, Ketogulonigenium robustum ADM X6L; details: for improvement of L-sorbose production from D-sorbitol upon overexpression: flask scale experiment, versus pXH2 control; for L-sorbose production from D-sorbitol upon overexpression (in words): flask scale experiments
Method: For expression of the three SDH genes in K. robustum strains, the genes with their own promoters were subcloned into the vector, pXH2/K5. These plasmids were transformed into the strains, K. robustum ADM X6L and 86-96 (NRRL B-21630), by electroporation. In this case, gene dosage effect may be expected due to the apparent high copy number of the plasmid pXH2/K5. The transformants were analyzed by HPLC for improved conversion activity upon overexpression of each SDH gene using D-sorbitol and L-sorbose as substrate.
The effect of overexpression of the three SDH genes in bioconversion activity was analyzed by HPLC analysis of the product profile of the culture supernatant of transformants in a medium containing D-sorbitol or L-sorbose as substrate. The transformants were cultivated overnight in RM medium containing 20 μg/ml of Kanamycin. This overnight culture was used to inoculate the 25 ml RM medium (supplemented with 20 μg/ml of Kanamycin) containing 20 g/l of D-sorbitol or 20 g/l of L-sorbose as substrate instead of mannitol. The culture supernatant samples were taken in a 12-hour interval and were analyzed by HPLC (Gilson HPLC with RI detector (ERC-7515A, ERC Inc.)) equipped with Asted XL automatic sample injector. Samples were loaded on two 2 mm×300 mm×7.8 mm Aminex HPX-87H columns (BioRad) arranged in series to provide a total column length of 600 mm. The column was run at 50° C. at a flow rate of 0.5 ml/min. The peaks were identified and the concentration was determined by comparison with those of the standards using glycerol as internal standard.
K. robustum ADM X6L transformants harboring the pXSDH1, pXSDH2 or pXSDH3 were cultivated with D-sorbitol or L-sorbose as substrate. HPLC analysis of the products from D-sorbitol (Table 10) or L-sorbose (Table 11) is shown below. A transformant harboring pXH2 served as control.

Molecule: CCCO [1-Propanol]
- % relative activity, ADM291-19 ([1]; substrate 50 mM): 100%
- % relative activity, ADM X6L ([2]; substrate 50 mM): 100%

Molecule: O=C(CO)[C@@H](O)[C@H](O)[C@H](O)CO [D-Fructose]
- % relative activity, ADM291-19 ([1]; substrate 250 mM): 11.7%
- % relative activity, ADM X6L ([2]; substrate 250 mM): 8.0%

Molecule: O=C(O)[C@H](O)[C@@H](O)[C@H](O)[C@H](O)CO [D-Gluconate]
- % relative activity, ADM291-19 ([1]; substrate 250 mM): 20.0%
- % relative activity, ADM X6L ([2]; substrate 250 mM): 30.6%

Molecule: O=C[C@H](O)[C@@H](O)[C@H](O)[C@H](O)CO [D-Glucose]
- % relative activity, ADM291-19 ([1]; substrate 250 mM): 20.0%
- % relative activity, ADM X6L ([2]; substrate 250 mM): 27.6%

Molecule: OC[C@@H](O)[C@@H](O)[C@H](O)[C@H](O)CO [D-Mannitol]
- % relative activity, ADM291-19 ([1]; substrate 100 mM): 0%
- % relative activity, ADM X6L ([2]; substrate 100 mM): 26.6%

Molecule: OC[C@@H](O)[C@@H](O)[C@H](O)[C@@H](O)CO [D-sorbitol]
- activity of the purified enzymes toward the substrate (in words) [3]: active
- % relative activity, ADM291-19 ([1]; substrate 250 mM): 12.4%
- enzyme activity, Cell Free Extract ([4]; Cell Free Extract): 0.66 ΔOD/min/2 μl enzyme
- enzyme activity, Membrane Fraction ([4]; Membrane Fraction): 0.00 ΔOD/min/2 μl enzyme
- enzyme activity, Soluble Fraction ([4]; Soluble Fraction): 0.65 ΔOD/min/2 μl enzyme
- % relative activity, ADM X6L ([2]; substrate 250 mM): 12.6%
- enzyme activity, Cell Free Extract ([5]; Cell Free Extract): 0.92 ΔOD/min/4 μl enzyme
- enzyme activity, Membrane Fraction ([5]; Membrane Fraction): 0.01 ΔOD/min/4 μl enzyme
- enzyme activity, Soluble Fraction ([5]; Soluble Fraction): 0.90 ΔOD/min/4 μl enzyme
- SDH activity, Osmotic Shock Fluid ([6]; Osmotic Shock Fluid (periplasmic fraction)): 0.45 ΔOD/min/50 μl enzyme
- SDH activity, Pellet Sonicate ([6]; Pellet Sonicate (cytoplasm and cytoplasmic membrane)): 0.68 ΔOD/min/50 μl enzyme
- SDH activity, Tris-Sucrose Wash ([6]; Tris-Sucrose Wash (periplasmic fraction)): 0.31 ΔOD/min/50 μl enzyme

Molecule: CCO [Ethanol]
- % relative activity, ADM291-19 ([1]; substrate 50 mM): 38.0%
- % relative activity, ADM X6L ([2]; substrate 50 mM): 20.0%

Molecule: OCC(O)CO [Glycerol]
- % relative activity, ADM291-19 ([1]; substrate 250 mM): 32.5%
- % relative activity, ADM X6L ([2]; substrate 250 mM): 56.5%

B1: SDH3: sorbitol dehydrogenase of K. robustum ADM 86-96, 580 amino acids (SEQ ID NO:8) (protein, listed as Ketogulonigenium sp.)
chain: MRPTTLLRTSAAVLLLGPIPAFAQVTPITDELLANPPAGEWINYGRNQENYRHSPLEQITTDNVGQLQLVWARGMEAGAVQVTPMIHDGVMYLANPGDVIQAIDAKTGDLMWEHRRQLPPVASLNGQGDRKRGVALYGTNLYFTSWDNHLVALDMATGQVVFDVERGSGDDGLTSNTSGPIVANGVIVAGSTCQYSPYGCFVSGHDPASGEELWRNYFIPQAGEEGDETWGNDFESRWMTGVWGQLTYDPVTNLVHYGSTGVGPASETQRGTPGGTLYGTNTRFAVRPDTGEIVWRHQTLPRDNWDQECTFEMMVANVDVQPAADMDGVQAINPNATTGERRVLTGIPCKTGTMWQFDAETGEFLWARDTNYQNLIASIDETGLVTVNEDSVLTQLDTDYDICPTFLGGRDWPSAALNPDSGIYFIPLNNACVDIMAVDQEFSALDVYNTSASYKLAPGFENMGRIDAIDISTGKTLWSAERLASNYSPVLSTAGGVLFNGGTDRYLRALSQETGETLWQTRLASVATGQAISYEIDGTQYVAIAGGGSTYGTNQNRALSEAIDSTTIGNAVYVFALPQQ
- improvement of L-sorbose production from D-sorbitol upon overexpression [7]: ~3 times
- L-sorbose production from D-sorbitol upon overexpression (in words) [7]: significantly improved

B2: SDH1: sorbitol dehydrogenase of K. robustum ADM 86-96, 578 amino acids (SEQ ID NO:5) (protein, listed as Ketogulonigenium sp.)
chain: MKSNSLLLASVAAVAFFAVPAFADVTPVTDELLANPPAGEWISYGRNQENYRHSPLNQITPDNVGQLQLVWARGMNPGVVQVTPLIHDGVMYLANPGDIIQAIDAKTGDLIWEHRRQLPETSTLSSLGDRKRGIALYGTNVYFVSWDNHMVALDAASGQVVFDVDRGQGDERVSNSSGPIVANGVIVAGSTCQYSPFGCFVSGHDASTGEELWRNYFIPQAGEEGDETWGNDYEARWMTGVWGQITYDPTTNLVFYGSSAVGPASEVQRGTPGGTLYGTNTRFAVRPDTGEVVWRHQTLPRDNWDQECTFEMMVANVDVQPAADMDGVQAINPNAATGERRVLTGVPCKTGTMWQFDAETGEFLWARDTNYQNMISSIDETGLVTVNEDIILKDLDTDYRICPTFLGGRDWPSASLNPDSGIYFIPLNNACADLAAVDQEFTAMDVYNTSATYLLAPEKENMGRIDAIDISTGKTLWSVERLASNYSPVLSTAGGVLFNGGSDRYFRALSEETGETLWQTRLATVASGQAISYELDGVQYVAIAGGGNTYGTNLNSNIGATIDSTSIGNAVYVFALPQ
- improvement of L-sorbose production from D-sorbitol upon overexpression [7]: ~2 times
- L-sorbose production from D-sorbitol upon overexpression (in words) [7]: significantly improved

From patent US20030228672A1, “Sorbitol dehydrogenases of ketogulonigenium species, genes and methods of use thereof” (priority 2002, published 2003)
